Patent publication US11229683B2, “Hematopoietic growth factor proteins and analogs thereof and angiotensin converting enzyme inhibitors for treatment of radiation exposure” (priority 2015, dated 2022)
Read-outs that look alike come from different tables or passages of the source. Marks after values point to notes of the source that are not given here.

How the values were obtained:
[1] = system: irradiated rats; test: Rat 13 Gy leg-out TBI model, renal injury by blood urea nitrogen (BUN); format: in vivo; settings: surviving animals, TC day 1, Lisinopril Day 7 to Day 150
Protocol: Euthanized animals are classified as non-survivors.
Blood urea nitrogen (BUN) measurements were made as a separate measure of kidney damage in surviving animals on Days 90, 120 and 150 (Table 8). BUN measurements are a commonly used measure of kidney function, with higher BUN numbers indicating greater kidney damage. Normal rat BUN measurements for non-irradiated rats are in the 17-22 mg/dL range. Rats were euthanized if BUN measurements were at or above 120 mg/dL.

[2] = system: irradiated rats; test: Rat 13 Gy leg-out TBI model, transthoracic echocardiography on day 50, Example 8; format: in vivo
Protocol: Non-irradiated rats (0 Gy) served as controls. On day 50, the rats were anesthetized with isoflurane (2%) and transthoracic echocardiography was performed. Measurements were obtained by an investigator who was blinded to the treatment groups. Animals were studied in the left lateral decubitus position and data was recorded with a Vivid 7 echocardiographic system (General Electric, Waukesha, Wis.).

[3] = system: lethally irradiated rats; settings: 13 Gy leg-out TBI, TC sc day 1, Lisinopril in drinking water Day 7 to Day 150, 12 rats/group
Text: Female WAG/RijCmcr rats were irradiated with 13 Gy at 12 weeks of age when they weighed ˜150-170 gm. Briefly, animals were immobilized in a plexiglass jig to avoid anesthetic. One hind leg was shielded with a one-quarter inch thick lead block. Shielding one leg from radiation exposure is sufficient to prevent death from hematopoietic failure during the following 40 days. […] The x-ray system was operated at 320 kVp and 13 mAs with a half value layer of 1.4 mm Cu. During the irradiation, each rat was confined in a separate chamber in a plastic jig, which allowed irradiation of 2 rats simultaneously. The chambers were placed on a plane perpendicular to the beam direction with distance from source to the midline of rats to be set at 33.5 cm. Collimator jaws were used to define a radiation field large enough to cover both chambers with adequate margin (at least 2 cm). Irradiated rats were given supportive care between days 2 to 14 post-TBI to mitigate acute gastrointestinal injury. This supportive care consisted of sc injections of saline (40 mL/kg/day) from days 3 to 7 post-TBI and the antibiotic enrofloxacin (10 mg/kg/day), given orally in the drinking water from days 2 to 14 post-TBI.
This study comprised four test groups, each consisting of 12 rats (Table 7). Rats received a single sc injection of vehicle solution (10 mM sodium phosphate, 4% mannitol, 1% sucrose pH 6.2) or an HGF triple combination (TC) at 24+4/−0 hr post-irradiation. […] Morbidity and survival of the animals were measured over time. Rats were euthanized if their body condition reached IACUC criteria for euthanasia or if their blood urea nitrogen (BUN) was measured at or above 120 mg/mL, which is an indicator if severe kidney damage. Euthanized animals are classified as non-survivors. Death prior to day 40 in this model typically occurs as a result of hematopoietic failure (H-ARS) or gastrointestinal injury (GI-ARS). Death between days 40 and 90 typically occurs as a result of lung damage, particularly pneumonitis. Death between days 90 and 150 typically occurs as a result of kidney damage (nephropathy). Morbidity at Day 40, 90 and 150 were chosen as representative times for death due to H-ARS, lung damage, and a combination of lung damage and kidney damage, respectively.

[4] = system: LD95/30 irradiated mice; test: Mouse ARS survival assay, LD95/30 (927 cGy), Example 1; format: in vivo; settings: LD95/30 (927 cGy) TBI, single sc injection 24 h post-irradiation; for % 30-d survival: PEG IL-11 0.3 mg/kg, PEG-G-CSF 1 mg/kg, PEG muGM-CSF 1 mg/kg, 40 mice/group
Protocol: The efficacy of three individual HGFs and all possible combinations of the 3 proteins to increase 30 day survival of lethally irradiated mice was tested at an LD95/30 radiation dose (a dose of radiation expected to cause death to 95% of an exposed population within 30 days). […] Male and female mice (Mus musculus, C57BL/6 strain), aged 10-12 weeks upon study initiation, were used for these studies. There were 40 animals per treatment group, 50% males and 50% females. A dose of radiation equal to the LD95/30 was delivered as a single uniform total body dose (TBD) of gamma radiation from a ^137Cs radiation source (GammaCell 40; Nordion International, Kanata, Ontario, Canada) at an exposure rate of 98.575-100.3±5.01 cGy/minute. Pilot studies determined the LD95/30 dose of radiation to be 927 cGy. […] Each group of mice irradiated together in the same irradiation pie was roughly divided among all groups to ensure that each group received the same irradiation exposure conditions. After irradiation mice were randomized to one of the Test Article or Control Article groups. Mice were provided acidified water (pH 2.0-3.0) in bottles and fed certified commercial extruded laboratory animal chow (HARLAN 2018SXC) throughout the study. On day 4 post-exposure, mice were provided acidified autoclaved water in bottles and also in wetted chow (HARLAN 2018SXC) in a petri dish set in the bottom of the cage. Mice were monitored for survival once per day until signs of early euthanasia appear, then twice per day until day 30. Mice meeting predetermined euthanasia criteria were euthanized.
Complete Blood Cell Counts (CBCs) with differential and peripheral smears were performed at baseline (pre-irradiation) and on days 10, 20, 25, and 30 post-TBI. Two randomly selected mice/group in different cages were bled on day −3 to day −1 prior to TBI for a total of 12 baseline CBCs. Four randomly selected mice/group were bled on days 10, 20, 25, and 30 post-TBI. When possible, the same number of males and females in each group and in separate cages were selected for bleeding. […]

[5] = system: LD65/30 irradiated one year old mice; test: Mouse ARS survival assay in one year old mice, 10 Gy (LD65/30), Example 4; format: in vivo; settings: single sc injection 24 h post-TBI
Text: One year old mice are a model for geriatric humans, which often respond differently to radiation exposure and drugs. One year old mice were exposed to different doses of radiation to construct a radiation dose response curve. […] The LD50/30 for one year old mice was 959 cGy, compared to 853 cGy for 12 week old mice. […] Other study details were as described in Example 1 and in Plett et al. (Plett, P A, et al. (2012) Establishing a murine model of the Hematopoietic Syndrome of the Acute Radiation Syndrome. Health Physics 103: 343-355; Plett, P. A., et al. (2014) PEGylated G-CSF (BBT-015), GM-CSF (BBT-007), and IL-11 (BBT-059) analogs enhance survival and hematopoietic cell recovery in a mouse model of the Hematopoietic Syndrome of the Acute Radiation Syndrome. Health Physics Journal 106: 7-20). Mice received one sc injection of the individual test proteins or all possible combinations of the test proteins 24+4/−0 hours post-TBI. Doses of the drugs administered were 1 mg/kg for PEG-G-CSF, 1 mg/kg for PEG-murine GM-CSF, and 0.3 mg/kg for PEG-IL-11.

[6] = system: irradiated mice; test: Mouse ARS survival assay, PEG-muGM-CSF, 853 or 872 cGy, Example 5; format: in vivo; settings: for % 30-d survival: listed as PEG-muGM-CSF, 1 mg/kg; for # survivors/total mice: 30 days
Protocol: At the higher 872 cGy radiation dose, 70% of mice treated once with PEG-muGM-CSF at 24 h post-TBI were still alive at 30 days, compared to 10% of vehicle-treated mice.

[7] = system: LD65/30 irradiated mice; test: Mouse ARS survival assay, LD65/30 (872 cGy), Example 10; format: in vivo; settings: single sc injection 24 h post-irradiation
Protocol: The efficacy of three individual HGFs and all possible combinations of the 3 proteins to increase 30 day survival of lethally irradiated mice was tested at an LD65/30 radiation dose (a dose of radiation expected to cause death to 65% of an exposed population within 30 days). This experiment was performed as described in Example 1 except that the radiation dose used was 872 cGy and there were 20 mice per test group (10 males/10 females). The three HGFs were the same ones used in Example 1.

[8] = system: lethally irradiated mice; settings: single sc injection; cited from earlier work
[9] = Lisinopril Day 7 to Day 50, mean ± SD, 8 rats
[10] = 853 cGy, 1 mg/kg single sc at 24 h post-TBI
[11] = 872 cGy, 1 mg/kg single sc at 24 h post-TBI

NCCCC[C@H](N[C@@H](CCc1ccccc1)C(=O)O)C(=O)N1CCC[C@H]1C(=O)O [Lisinopril]
BUN Day 120, median (20th-80th percentile) [1]: 23 (20-24) * mg/dL
BUN Day 150, median (20th-80th percentile) [1]: 25 (22-27) ** mg/dL
Cardiac Output [2, 9]: 170.1 ± 36.4 mL/min
End Systolic Volume [2, 9]: 0.125 ± 0.04 mL
End-Diastolic Volume [2, 9]: 0.585 ± 0.08 mL
Left Ventricle Internal Diameter systole [2, 9]: 0.364 ± 0.03 cm
Left Ventricle Mass [2, 9]: 0.919 ± 0.04 grams
Left Ventricle Posterior Wall diastole [2, 9]: 0.109 ± 0.01 cm
Left Ventricular Internal Dimension (diastole) [2, 9]: 0.57 ± 0.17 cm
Stroke volume [2, 9]: 0.460 ± 0.06 mL
radiation-induced changes to heart parameters ([2]; Lisinopril on days 7 to 50): prevented or reduced radiation-induced changes
Survival (%) Day 40 [3]: 100%
Survival (%) Day 150 [3]: 92%
Survival (%) Day 90 ([3]; listed as Vehicle + Lisinopril): 92%
Survival (%) Day 90 ([3]; listed as Vehicle plus Lisinopril): 100%

B1: PEG GM-CSF: the murine BBT-007 GM-CSF homolog T3C modified with a 40 kDa-PEG (protein, UniProt P01587 18-141, looked up, variant T3C)
Granulocyte-macrophage …: APCRSPITVTRPWKHVEAIKEALNLLDDMPVTLNEEVEVVSNEFSFKKLTCVQTRLKIFEQGLRGNFTKLKGALNMTASYYQTYCPPTPETDCETQVTTYADFIDSLKTFLTDIPFECKKPGQK
modifications: 40 kDa PEG
notes: the murine BBT-007 GM-CSF homolog T3C modified with a 40 kDa-PEG
# survivors/total mice ([4]; 30 days): 13/40
% 30-d survival [4]: 32.5%
% 30-d survival ([4]; listed as PEG-GM-CSF): 33%
# survivors/total mice ([5]; 30 days): 11/20
% 30-d survival ([5]; PEG IL-11 0.3 mg/kg, PEG-G-CSF 1 mg/kg, PEG muGM-CSF 1 mg/kg): 55%
% of mice that survived 30 days, pooled data from the two radiation doses ([6]; 853 and 872 cGy pooled, 1 mg/kg single sc at 24 h post-TBI): 77.5%
% 30-d survival [6, 10]: 85%
% 30-d survival [6, 11]: 70%
# survivors/total mice [6, 10]: 17/20
# survivors/total mice [6, 11]: 14/20
hematopoietic recovery (CBC) vs vehicle ([6]; day 20 post-TBI, 853 and 872 cGy): accelerated hematopoietic recovery
# survivors/total mice ([7]; 30 days): 14/20
% 30-d survival ([7]; PEG IL-11 0.3 mg/kg, PEG-G-CSF 1 mg/kg, PEG muGM-CSF 1 mg/kg, 20 mice/group): 70%

B2: muGM-CSF: non-long-acting murine GM-CSF (protein, UniProt P01587 18-141, looked up)
Granulocyte-macrophage …: APTRSPITVTRPWKHVEAIKEALNLLDDMPVTLNEEVEVVSNEFSFKKLTCVQTRLKIFEQGLRGNFTKLKGALNMTASYYQTYCPPTPETDCETQVTTYADFIDSLKTFLTDIPFECKKPGQK
30-day survival of lethally irradiated mice [8]: does not improve 30-day survival
